These results are taken from patent US4968686A, “Acyclic pyrrolo [2,3-d]pyrimidine analogs as antiviral agents” (The Regents of The University of Michigan, priority 1989, dated 1990).

Where two headings read alike, the source gives them in different places.

The subject of one data set is MCMV. As to the kind of experiment: In vivo treatment of mice infected with murine cytomegalovirus (MCMV). Here is the method: Compound UMJD 183 was tested in mice infected with murine cytomegalovirus (MCMV). This animal model has been recognized as having capabilities predictive of efficacy in humans.
Compound UMJD 183 and the drug ganciclovir (DHPG) were administered to groups of 15 mice each at doses and times of administration shown in Table 3. Each compound at all doses was administered intraperitoneally twice daily for five days beginning at either 6, 24 or 48 hours after virus inoculation. Animals were observed daily and the number dying each day recorded.

A short description of data set [1]: Drug toxicity control in uninfected mice. Format: in vivo. The conditions noted are these: for mortality: mouse, in vivo, ip, read-out: Mortality Percent (Toxicity).
Another data set has as its system human PBLs. As to the kind of experiment: DNA synthesis in mitogen-stimulated human PBLs. The data set is classed as cell-based. The conditions noted are these: pokeweed mitogen or concanavalin A; 0.1, 1, 10 and 100 μM.
Another data set can be described thus: Growth of HFF cells. The conditions noted are these: human, hff cells; 100 μM; 70-hour incubation; read-out: reduction of number of HFF cells. The data set is classed as cell-based, human. Here is the method:
(§1) Population doubling times and cell viability were measured in uninfected HFF and/or KB cells. Cells were planted in replicate 6-well plastic tissue culture dishes or in 25 cm^2 flasks as described above in part 1. Following an incubation period during which cells attached to the substrate, medium was decanted, the cell sheet rinsed once with HBS, and fresh medium added. The medium consisted of MEM(E) with 1.1 gm NaHCO3 /liter and 10% fetal bovine or calf serum plus appropriate log or half-log concentrations of drug. After additional periods of incubation from 1 to 72 hours at 37° C., cells were harvested by means of 0.05% trypsin plus 0.02% EDTA in a HEPES-buffered salt solution. Cells were enumerated using either a Coulter counter or a hemocytometer and viability determining using trypsan blue dye exclusion.
The effect of these compounds on the growth of human diploid fibroblasts (HFF cells) was less pronounced. During a 70-hour incubation, control cells underwent two doublings. […] A 100 μM concentration reduced the number of cells by less than 10%.

Data set [2] can be described thus: Growth of KB cells (population doubling times). Particulars: human, kb cells; 100 μM; read-out: reduction of KB cell growth rate. The data set is classed as cell-based, human. The method, then:
as §1
In more extensive cytotoxicity testing, the halogenated compounds were tested for effects on the growth of KB cells. Populations doubling times were calculated from the logarithmic portions of growth curves and were as follows: […]

`Nc1ncnc2c1c(Br)cn2COC(CO)CO` [UMJD 183, 4-amino-5-bromo-7-[(1,3-dihydroxy-2-propoxy)methyl]-pyrrolo[2,3-d]pyrimidine]: the “MDD (Mean Day of Death)” value with MCMV (1.9 mg/kg at 6 h) came out at 6.2 days; with MCMV (1.9 mg/kg at 24 h) it was 4.8 days; in the data set with MCMV (1.9 mg/kg at 48 h), 4.8 days; with MCMV (5.6 mg/kg at 6 h) it was 8.0 days; with MCMV (5.6 mg/kg at 24 h), 6.3 days; in the data set with MCMV (5.6 mg/kg at 48 h), 5.5 days. Further, the “MDD (Mean Day of Death)” value is 8.7 days in the data set with MCMV (16.7 mg/kg at 6 h); 7.1 days in the data set on MCMV (16.7 mg/kg at 24 h); 8.4 days with MCMV (16.7 mg/kg at 48 h); 10.8 days in the data set on MCMV (50 mg/kg at 6 h); 8.8 days in the data set with MCMV (50 mg/kg at 24 h); 7.5 days in the data set with MCMV (50 mg/kg at 48 h). Moreover, the “Mortality Number” value is reported as 5/15 in the data set on MCMV (1.9 mg/kg at 6 h); 9/15 in the data set with MCMV (1.9 mg/kg at 24 h); 10/15 in the data set on MCMV (1.9 mg/kg at 48 h); 1/15 with MCMV (5.6 mg/kg at 6 h); 3/15 in the data set on MCMV (5.6 mg/kg at 24 h); 6/15 in the data set on MCMV (5.6 mg/kg at 48 h). For the same compound, the “Mortality Number” value in the data set with MCMV (16.7 mg/kg at 6 h) is 9/15; with MCMV (16.7 mg/kg at 24 h), 12/15; in the data set on MCMV (16.7 mg/kg at 48 h), 13/15; in the data set with MCMV (50 mg/kg at 6 h, i.p. twice daily 5 days), 9/15; in the data set with MCMV (50 mg/kg at 24 h), 14/15; in the data set on MCMV (50 mg/kg at 48 h) it was 13/15. In addition, the “Mortality Percent” value is on record as 33% with MCMV (1.9 mg/kg at 6 h); 60% in the data set on MCMV (1.9 mg/kg at 24 h); 67% in the data set with MCMV (1.9 mg/kg at 48 h); 7% in the data set on MCMV (5.6 mg/kg at 6 h); 20% in the data set with MCMV (5.6 mg/kg at 24 h); 40% in the data set on MCMV (5.6 mg/kg at 48 h). Also, the “Mortality Percent” value is reported as 60% with MCMV (16.7 mg/kg at 6 h); 80% in the data set with MCMV (16.7 mg/kg at 24 h); 87% with MCMV (16.7 mg/kg at 48 h); 60% in the data set with MCMV (50 mg/kg at 6 h); 93% in the data set on MCMV (50 mg/kg at 24 h); 87% with MCMV (50 mg/kg at 48 h). Moreover, the “number of animals surviving virus infection (in words)” value in the data set with MCMV (5.6 mg/kg) is recorded as “highly significant increases in the number of animals surviving”. Also, the “life span of MCMV-infected mice (in words)” value in the data set with MCMV (all doses) was “prolonged life span (increased the mean day of death) at all doses”. The “Mortality Number (Toxicity)” value is 0/15 in data set [1] (1.9 mg/kg, no virus); 0/15 in data set [1] (5.6 mg/kg, no virus); 1/15 in data set [1] (16.7 mg/kg, no virus); 0/15 in data set [1] (50 mg/kg, no virus). In addition, the “MDD (Toxicity)” value in data set [1] (16.7 mg/kg, no virus) is 5.0 days. Besides, the “toxicity in uninfected animals (in words)” value in data set [1] (administered alone to uninfected animals) is “virtually no toxicity”. The “deaths in uninfected animals” value in data set [1] (all doses together) is reported as 1 death in 60 animals. Also, the mortality in data set [1] (1.9 mg/kg, no virus) was determined as 0%; in data set [1] (5.6 mg/kg, no virus), 0%; in data set [1] (16.7 mg/kg, no virus) it was 7%; in data set [1] (50 mg/kg, no virus), 0%.
As to `Nc1ncnc2c1c(Cl)cn2COCCO` [UMJD 100, 4-Amino-5-chloro-7-(2-hydroxyethoxymethyl)pyrrolo[2,3-d]-pyrimidine], the “effect on DNA synthesis in human PBLs” value in the data set on human PBLs is listed as “did not affect DNA synthesis”. Also, the inhibition at 70 h, 100 µM in “Growth of HFF cells” is below 10%.
Turning to `Nc1nc(O)c2ncn(COC(CO)CO)c2n1` [Ganciclovir (DHPG), reference compound], the “MDD (Mean Day of Death)” value with MCMV (0.6 mg/kg at 6 h) amounted to 4.6 days; in the data set with MCMV (0.6 mg/kg at 24 h) it was 5.4 days; in the data set with MCMV (0.6 mg/kg at 48 h), 5.3 days; in the data set on MCMV (1.9 mg/kg at 6 h), 5.4 days; with MCMV (1.9 mg/kg at 24 h), 4.9 days; with MCMV (1.9 mg/kg at 48 h), 4.9 days. In addition, the “MDD (Mean Day of Death)” value is 4.2 days with MCMV (5.6 mg/kg at 6 h); 5.3 days in the data set on MCMV (5.6 mg/kg at 24 h); 5.5 days in the data set with MCMV (5.6 mg/kg at 48 h); 3.8 days in the data set with MCMV (16.7 mg/kg at 6 h); 5.3 days with MCMV (16.7 mg/kg at 24 h); 5.5 days with MCMV (16.7 mg/kg at 48 h). The “Mortality Number” value is listed as 14/15 in the data set with MCMV (0.6 mg/kg at 6 h); 12/15 in the data set on MCMV (0.6 mg/kg at 24 h); 14/15 with MCMV (0.6 mg/kg at 48 h); 5/15 in the data set on MCMV (1.9 mg/kg at 6 h); 12/15 with MCMV (1.9 mg/kg at 24 h); 11/15 with MCMV (1.9 mg/kg at 48 h). For the same compound, the “Mortality Number” value with MCMV (5.6 mg/kg at 6 h) is 5/15; in the data set with MCMV (5.6 mg/kg at 24 h), 7/15; with MCMV (5.6 mg/kg at 48 h) it was 10/15; in the data set with MCMV (16.7 mg/kg at 6 h), 4/15; in the data set on MCMV (16.7 mg/kg at 24 h) it was 7/15; in the data set on MCMV (16.7 mg/kg at 48 h), 8/15. The “Mortality Percent” value in the data set with MCMV (0.6 mg/kg at 6 h) stood at 93%; with MCMV (0.6 mg/kg at 24 h) it was 80%; in the data set with MCMV (0.6 mg/kg at 48 h), 93%; with MCMV (1.9 mg/kg at 6 h) it was 33%; in the data set with MCMV (1.9 mg/kg at 24 h), 80%; with MCMV (1.9 mg/kg at 48 h) it was 73%. Also, the “Mortality Percent” value is reported as 33% in the data set with MCMV (5.6 mg/kg at 6 h); 47% in the data set on MCMV (5.6 mg/kg at 24 h); 67% in the data set on MCMV (5.6 mg/kg at 48 h); 27% in the data set with MCMV (16.7 mg/kg at 6 h); 47% with MCMV (16.7 mg/kg at 24 h); 53% with MCMV (16.7 mg/kg at 48 h).
Take `OCC(CO)OCn1cc(Br)c2c(NO)ncnc21` [UMJD 299, 4-hydroxylamino-5-bromo-7-[(1,3-dihydroxy-2-propoxy)methyl]pyrrolo[2,3-d]pyrimidine]: in data set [2], the inhibition at 100 µM was above 50%.

For orientation: mortality means the share of the test organisms that died.
